Drawing on patent US10980890B2, “Compounds comprising self-immolative group” (LegoChem Biosciences, Inc., priority 2014, dated 2021), this text covers IC50 for 1 compound.

Square brackets hold non-standard residues; d marks the D form. Peptide text beside a SMILES is read from it. Dolaproine = CO[C@@H]([C@@H]1CCCN1)[C@@H](C)C(=O)O; Dil = CC[C@H](C)[C@H](NC)[C@@H](CC(=O)O)OC; NMeV = CN[C@H](C(=O)O)C(C)C

By IC50 is commonly meant the concentration that gives 50% inhibition.

Test in all cases: Anti-proliferation assay of ADC (SRB)
What all share (format): cell-based, human
Conditions in all cases: 72 hours, drug

Assay [1] concerns MCF-7 (HER2-negative or -normal) breast cancer cell line. On the procedure: (§1) Anti-cell proliferation activities of antibodies, a drug, and ADC(s) illustrated in the following Table 2 on cancer cell lines were measured.
(§2) As the cancer cell lines, commercialized human breast cancer cell lines MCF-7 (HER2-negative or -normal) and SK-Br3 (HER2 positive), and a commercialized ovarian cancer cell lines SK-OV3 (HER2 positive) were used. As the drug, MMAF was used.
(§3) After each of the cancer cell lines was seeded in a 96-well plate at 10,000 cells/each well and cultured for 24 hours, the antibody and ADC were treated at a concentration of 0.01563-2 μg/ml (2 times serial dilution), and the drug was treated at a concentration of 4-500 nM (2 times serial dilution). After 72 hours, the numbers of living cells were quantified using a Sulforhodamine B (SRB) dye.

Assay [2] has as its system SK-OV3 (HER2 positive) ovarian cancer cell line. The procedure:
as §1, §2, §3

In assay [3] the test system is SK-Br3 (HER2 positive) breast cancer cell line. The procedure:
as §1, §2
After 72 hours, the numbers of living cells were quantified using a Sulforhodamine B (SRB) dye.

Take `CC[C@H](C)[C@@H]([C@@H](CC(=O)N1CCC[C@H]1[C@H](OC)[C@@H](C)C(=O)N[C@@H](Cc1ccccc1)C(=O)O)OC)N(C)C(=O)[C@@H](NC(=O)[C@@H](NC)C(C)C)C(C)C` [MMAF, monomethylauristatin F] (H-[NMeV]V[Dil][Dolaproine]F-OH): the IC50 worked out at 0.142 µM in assay [1], 0.227 µM in assay [2] and 0.136 µM in assay [3].
